{"source": "patent US7825134B2", "about": "“Amelioration of cataracts, macular degeneration and other ophthalmic diseases” (Othera Holding, Inc., priority 2003, dated 2010)", "key": {"[1]": {"system": "rabbit eyes", "assay": "Tolerance in vivo in rabbit eyes", "parameters": "species or system rabbits", "procedure": "Eyedrops containing 3.5% compound 1 were administered six times, at 1-hour intervals, to each eye of two conscious rabbits.\nIt was previously established that dosing rabbits with a 3% solution of Compound 1, 4 times daily, for one week caused no toxicity."}, "[2]": {"assay": "Aqueous solubility at room temperature", "assay_type": "physicochemical", "settings": "thermodynamic from solid", "from_the_text": "It may be preferred that at least 0.1% solubility is needed for an eye drop, even for a suspension formulation. Completely water-insoluble compounds may not be effective. Esters that are soluble in water (>0.1% weight by volume) are preferred. Esters with less than 0.1% solubility may be used in the form of suspensions or ointments or other formulations. […]"}, "[3]": {"assay": "Pharmacokinetics and ocular tissue distribution of total radioactivity after single topical dose", "assay_type": "in vivo, New Zealand White (Harlan) rabbits", "procedure": "Pharmacokinetics, Ocular Tissue Distribution, and Urinary Excretion of Total Radioactivity Following Single Topical Dose Administration of Compound 1 in Rabbits. The pharmacokinetics, ocular tissue distribution and urinary excretion of total radioactivity following a single topical dose administration of the tritiated hydrochloride of Compound 1 in rabbits was evaluated. Eighteen male New Zealand White (Harlan) rabbits, age 3-6 months, weight 2.1 to 3.0 kg were utilized.\nExperimental Design: The experimental design was a randomized, single-treatment study in one group of rabbits administered a single topical application of [^3H]Compound 1-HCl into both eyes. The group consisted of 6 subgroups of 3 animals. At six specified times (0.5, 1, 2, 4, 8 and 24 hours) post-dose, three animals per subgroup were euthanized and terminal samples collected. Animals designated to the 24 hour post-dose subgroup were placed in metabolism cages and urine was collected from 0-12 and 12-24 hours post-dose. Terminal blood was collected by cardiac puncture technique. From each eye, the following ocular tissues were harvested: aqueous humor; vitreous humor; lens; and cornea. Total radioactivity was determined in all samples.\nAnimals received a single topical ocular dose in each eye, right (OD) followed by left (OS). While slightly pulling away the lower eyelid from the globe, the dose was accurately pipetted onto the cornea and allowed to collect in the lower conjunctival sac. The eyelids were gently held shut for 1 minute after drug instillation and then carefully released.\nData analysis and statistical evaluation: Counts per minute for all assayed samples were converted to disintegrations per minute (DPM) using a Beckman LS6000 counter. Following appropriate background subtraction, DPM values were converted to concentrations (DPM per ml or g). Average DPM per ml or g values were calculated. Mean concentration values of ^3H radioactivity were calculated and converted to equivalents per ml or g based on the measured specific activity and nominal concentration of the administered test article formulation as determined by oxidation. Concentrations of total radioactivity in blood and plasma, amount (% of dose) and concentration in ocular tissue and urine samples were determined. Elimination kinetics including blood, plasma, and tissue half-lives were calculated. Urinary excretion data were also tabulated. Statistical evaluation consisted of descriptive statistical analysis. Pharmacokinetics of radioactivity were evaluated by model independent analyses pending suitability of sample assay results. Non-truncated numerical values were used in the calculations."}, "[4]": {"assay": "Identification of metabolites of Compound 1 in rabbit aqueous humor (GC/MS)", "assay_type": "in vivo", "settings": "GC/MS of rabbit aqueous humor after topical dosing", "procedure": "Aqueous humor samples, from the in vivo rabbit study described in Example 16 were identified by GC/MS for the presence of compound 1 and its metabolites, tempol-H and carboxylic acid (R1COOH), formed by hydrolysis of compound 1 by ocular esterases. Both the metabolites were observed but not Compound 1.\nA sample of aqueous humor was freeze dried in a 10 mL amber colored glass vial containing a tiny magnetic bar. To this was added 1 mL of methylene chloride and the solution was stirred for two minutes and allowed to stand for five minutes. A 3 μL aliquot of the methylene chloride layer was injected into the GC column. The cyclopropanecarboxylic acid was detected by a mass spectrometer detector at 13.02 (retention time) with m/z=85 (GC model […] series II (both made by HP)). Agilent DB-5 column 25 m length, 0.2 mm diameter was used. Carrier gas He at 22 cm/sec. Inlet temperature was 250° C., detector 280° C. For every injection, the temperature was held at 35° C. for 5 minutes, then was increased to 240° C. at 10° C./min, and was held at 240° C. for 3 minutes. Splitless injection was used."}, "[5]": {"assay": "Measured octanol/water partition coefficient", "assay_type": "physicochemical", "from_the_text": "Esters are selected for these tests based on their calculated or measured octanol/water partition coefficient (P). Hydrophilic compounds such as tempol-H cannot penetrate the lipophilic epithelial layer of the cornea. Partition coefficients of tempol-H and esters that penetrate are as follows: […]"}, "[6]": {"assay": "Drug penetration of organ cultured rat lenses (ESR)", "assay_type": "in vitro ADME, Sprague-Dawley rats", "settings": "for Concentration of tempol-H in lens water: Sprague-Dawley, rat, 4 mM", "procedure": "Method: Rat lenses were cultured as follows: Rat lenses were obtained from Sprague-Dawley rats. The lenses were incubated in 24-well cluster dishes in modified TC-199 medium and were placed in a 37° C. incubator with a 95% air/5% CO2 atmosphere. The lenses were incubated in 2 ml of culture medium, which was adjusted to 300 milliosmoles (mOsm). […] In one experiment, lenses were incubated for 4 hours and dissected into epithelial, cortical and nuclear sections before analysis."}, "[7]": {"system": "ARPE-19 cells that have accumulated A2E", "assay": "Protection against A2E-mediated blue light damage in RPE cells", "assay_type": "cell-based", "settings": "24 hours pre-treatment; 430+/−20 nm light; MTT and two-color fluorescence assays; FIG. 3 and FIG. 4", "procedure": "Materials and Methods: ARPE-19 cells that have accumulated A2E in culture were exposed to 430+/−20 nm light delivered from a halogen source. This wavelength of light is relevant since (i) the excitation maximum of A2E is approximately 430 nm, and (ii) light of this wavelength reaches the RPE in vivo while light of wavelengths […] by the cornea and lens. Cell death in blue light-illuminated A2E-laden RPE was compared with and without pre-treatment (24 hours) with tempol-H. The loss of cell viability was quantified by: • 1. A calorimetric microtiter assay based on ability of healthy metabolically active cells to cleave the yellow tetrazolium salt MTT to purple formazan crystals. Cell viability was assessed 24 hours after blue light illumination. Triplicate wells were assayed in each of 2 experiments. • 2. Two-color fluorescence assay in which the nuclei of all dead cells appear red due to staining by a membrane-impermeant dye (Dead Red nuclei acid stain, Molecular Probes) with the nuclei of all cells stained blue with DAPI. Cell viability was assessed 8 hours after blue light illumination. Replicates were assayed by counting cells within 5 microscopic fields within the area of illumination in each well and 3 wells were assayed per experiment. Data are based on of 3 experiments."}, "[8]": {"assay": "Absorption across the cornea: aqueous humor tempol-H after topical eye drops (ESR)", "assay_type": "in vivo, New Zealand White rabbits", "settings": "all time points (30, 60, 120 minutes) after topical 3.5% solution", "procedure": "Groups of six New Zealand White rabbits were used in the study to evaluate the absorption of tempol-H and compound 1. The test compounds were prepared in sterile saline solutions at a concentration of 3.5% weight by volume. The animals were held in restraining boxes during instillation of eye drops, 50 μL in each eye, using a micropipette. After dosing, the eye was gently held closed for 60 seconds. The rabbits were dosed twice daily for 4 consecutive days. On the fifth day, rabbits were dosed once and then euthanized at 30 minutes post dose (2 rabbits), 60 minutes post-dose (2 rabbits) and at 120 minutes post-dose (2 rabbits). Immediately after euthanization, aqueous humor was collected from each rabbit. The aqueous concentration of tempol-H in each sample was measured using the electron spin resonance (ESR) method."}, "[9]": {"settings": "30 minutes post-dose, single drop (40 ul) of 3% solution, total radioactivity"}}, "note": "“Also recorded” adds a separate entry of the source. Counter-ions that a name gives are not always drawn."}
{"compound": "CC1(C)CC(OC(=O)c2ccco2)CC(C)(C)N1O.Cl", "values": [{"measurement": "melting point", "result": "209.4 to 210.4", "unit": "°C"}]}
{"compound": "CCOCC(C)(C)C(=O)OC1CC(C)(C)N(O)C(C)(C)C1.Cl", "values": [{"measurement": "melting point", "result": "140 to 142 °C (dec.)"}]}
{"compound": "CC1(C)CC(OC(=O)C2CC2)CC(C)(C)N1O.Cl", "note": "[Compound 1, 1-hydroxy-4-cyclopropanecarbonyloxy-2,2,6,6-tetramethylpiperidine Hydrochloride]", "values": [{"measurement": "Toxicity", "setting": "[1]; 3% solution, 4 times daily, for one week", "result": "no toxicity"}, {"measurement": "Ocular tolerance", "setting": "[1]; eyedrops 3.5%, six times at 1-hour intervals, each eye of two conscious rabbits", "result": "well tolerated and no adverse findings were noted"}, {"measurement": "solubility", "setting": "[2]; 0.01 M acetate buffer, pH 4.8, aqueous buffer, 0.01 M Acetate buffer at pH 4.8, room temperature", "result": 68.6, "unit": "mg/mL"}, {"measurement": "solubility", "setting": "[2]; 0.01 M citrate buffer, pH 4.8, aqueous buffer, 0.01 M Citrate buffer at pH 4.8, room temperature", "result": 71.1, "unit": "mg/mL"}, {"measurement": "solubility", "setting": "[2]; 0.9% sodium chloride, saline or isotonic, room temperature", "result": 40.5, "unit": "mg/mL"}, {"measurement": "solubility", "setting": "[2]; water with 1% w/v glycerin, water, Water + 1% w/v glycerin, room temperature", "result": 62.2, "unit": "mg/mL"}, {"measurement": "solubility", "setting": "[2]; water with 1% w/v propylene glycol, water, Water + 1% w/v propylene glycol, room temperature", "result": 63.8, "unit": "mg/mL"}, {"measurement": "solubility", "setting": "[2]; water, room temperature", "result": 74.9, "unit": "mg/mL"}, {"measurement": "Peak concentration, Blood", "setting": "[3]; [9]", "result": 240, "unit": "nanogram equivalents/gram"}, {"measurement": "Peak concentration, Plasma", "setting": "[3]; [9]", "result": 360, "unit": "nanogram equivalents/gram"}, {"measurement": "Peak tissue concentration, Aqueous", "setting": "[3]; [9]", "result": 5930, "unit": "nanogram equivalents/gram"}, {"measurement": "Peak tissue concentration, Cornea", "setting": "[3]; [9]", "result": 13090, "unit": "nanogram equivalents/gram"}, {"measurement": "Peak tissue concentration, Lens", "setting": "[3]; [9]", "result": 310, "unit": "nanogram equivalents/gram"}, {"measurement": "Peak tissue concentration, Vitreous", "setting": "[3]; [9]", "result": 150, "unit": "nanogram equivalents/gram"}, {"measurement": "Radioactivity in tissues at 24 hours post-dose", "setting": "[3]; all tissues, FIG. 2", "result": "still measurable in all tissues"}, {"measurement": "Conversion to metabolites (tempol-H and carboxylic acid) in aqueous humor", "setting": "[4]", "result": "completely converted to its metabolites"}]}
{"compound": "CC(C)(CO)C(=O)OC1CC(C)(C)N(O)C(C)(C)C1", "note": "[Example 10, 1-hydroxy-4-(3′-hydroxy-2′,2′-dimethyl)propanecarbonyloxy-2,2,6,6-tetramethylpiperidine Hydrochloride]", "values": [{"measurement": "solubility", "setting": "[2]; water, room temperature", "result": "> 35", "unit": "mg/mL"}]}
{"compound": "CC1(C(=O)OC2CC(C)(C)N(O)C(C)(C)C2)CC1.Cl", "note": "[Example 12, 1-hydroxy-4-(1-methyl-cyclopropane)carbonyloxy-2,2,6,6-tetramethylpiperidine Hydrochloride]", "values": [{"measurement": "melting point", "result": "215 to 220 °C (dec.)"}, {"measurement": "solubility", "setting": "[2]; water, room temperature", "result": "≥ 1", "unit": "mg/mL"}]}
{"compound": "CC1(C)CC(OC(=O)C2CCOC2)CC(C)(C)N1O.Cl", "note": "(stereo not drawn) [Example 16, 1-hydroxy-4-(3′-tetrahydrofuran)carbonyloxy-2,2,6,6-tetramethylpiperidine Hydrochloride]", "values": [{"measurement": "solubility", "setting": "[2]; water, room temperature", "result": "> 35", "unit": "mg/mL"}]}
{"compound": "CC1(C)CC(O)CC(C)(C)N1O", "note": "[Tempol-H, 1,4-dihydroxy-2,2,6,6-tetramethylpiperidine]", "values": [{"measurement": "P (measured)", "setting": "[5]", "result": 0.5}, {"measurement": "Concentration of tempol-H in lens water", "setting": "[6]; 1 h", "result": 400, "unit": "µM"}, {"measurement": "Concentration of tempol-H in lens water", "setting": "[6]; 2 h", "result": 800, "unit": "µM"}, {"measurement": "Concentration of tempol-H in lens water", "setting": "[6]; 4 h", "result": 1000, "unit": "µM"}, {"measurement": "Protection against the death of blue light-illuminated A2E-laden RPE", "setting": "[7]", "result": "dose-dependent protection; also recorded: protect"}, {"measurement": "Aqueous humor levels of tempol-H", "setting": "[8]", "result": "below detectable limits"}]}
{"compound": "CC1(C)CC(O)CC(C)(C)N1[O]", "note": "[tempol]", "values": [{"measurement": "Share in the oxidized form in the epithelium", "setting": "[6]; 4-hour incubation with tempol", "result": "about 5%"}, {"measurement": "Oxidized form tempol found in the lens", "setting": "[6]; after incubation with 4.0 mM tempol", "result": "≤ 5", "unit": "%"}]}
